Laboratory results from ChEMBL document CHEMBL3885861, “Open TG-GATES”.

Species on record: Rattus norvegicus
Experiment: Open TG-GATES - Regimen: Daily Repeat
Type: toxicity, organism-based, Sprague-Dawley
Set-up: regimen Daily Repeat, gender Male, age 6 weeks
Details: in vivo, po, route gavage; for APTT / Bas / Eos / Fbg / Hb / Ht / Lym / MCH / MCHC / MCV / Mono / Neu / PT / Plat / RBC / Ret / WBC: tissue Blood; for KIDNEY_L / KIDNEY_R / KIDNEY_TOTAL: tissue Kidney; for LIVER: tissue Liver; for A/G / ALP / ALT / AST / BUN / CRE / Ca / Cl / DBIL / GLC / IP / K / LDH / Na / PL / RALB / TBIL / TC / TG / TP / gamma-GTP: tissue Plasma
[1] = 0 mg/kg, 72 h, dose level Control, time 3 day
[2] = 0 mg/kg, […], dose level Control, time 7 day
[3] = 0 mg/kg, […], dose level Control, time 14 day
[4] = 0 mg/kg, […], dose level Control, time 28 day
[5] = 100 mg/kg, 72 h, dose level Low, time 3 day
[6] = 100 mg/kg, […], dose level Low, time 7 day
[7] = 100 mg/kg, […], dose level Low, time 14 day
[8] = 100 mg/kg, […], dose level Low, time 28 day

## CC(C)(S)[C@@H](N)C(=O)O [PENICILLAMINE]
[1]
  TERMINAL_BW: 235.9 g
  APTT: 15.9 s
  Bas: 0.2%
  Eos: 0.6%
  Fbg: 305 mg/dL
  Hb: 13.7 g/dL
  Ht: 41.9%
  Lym: 75.8%
  MCH: 21.1 pg
  MCHC: 32.7%
  MCV: 64.6 fL
  Mono: 3%
  Neu: 19.6%
  PT: 13.8 s
  Plat: 131.2 x10_4/uL
  RBC: 648.8 x10_4/ul
  Ret: 7.1%
  WBC: 113.2 x10_2/uL
  KIDNEY_L: 0.9 g
  KIDNEY_R: 0.9 g
  KIDNEY_TOTAL: 1.9 g
  LIVER: 11.2 g
  A/G: 0.9
  ALP: 1527 IU/L
  ALT: 43.4 IU/L
  AST: 69 IU/L
  BUN: 14.6 mg/dL
  CRE: 0.2 mg/dL
  Ca: 11.1 mg/dL
  Cl: 106.2 meq/L
  DBIL: 0.014 mg/dL
  GLC: 177.8 mg/dL
  IP: 6.8 mg/dL
  K: 4.1 meq/L
  LDH: 84.4 IU/L
  Na: 144.2 meq/L
  PL: 171.8 mg/dL
  RALB: 2.8 g/dL
  TBIL: 0.018 mg/dL
  TC: 90.2 mg/dL
  TG: 118.8 mg/dL
  TP: 5.8 g/dL
  gamma-GTP: 1 IU/L
[2]
  TERMINAL_BW: 275.3 g
  APTT: 17.9 s
  Bas: 0%
  Eos: 1%
  Fbg: 320.4 mg/dL
  Hb: 14.2 g/dL
  Ht: 43.2%
  Lym: 72.8%
  MCH: 21 pg
  MCHC: 32.8%
  MCV: 64.1 fL
  Mono: 2.8%
  Neu: 22.4%
  PT: 13.9 s
  Plat: 121.1 x10_4/uL
  RBC: 674.8 x10_4/ul
  Ret: 5.9%
  WBC: 98.3 x10_2/uL
  KIDNEY_L: 1.1 g
  KIDNEY_R: 1.1 g
  KIDNEY_TOTAL: 2.2 g
  LIVER: 13 g
  A/G: 0.9
  ALP: 1428 IU/L
  ALT: 45.4 IU/L
  AST: 68.6 IU/L
  BUN: 15 mg/dL
  CRE: 0.2 mg/dL
  Ca: 10.9 mg/dL
  Cl: 105.2 meq/L
  DBIL: 0.018 mg/dL
  GLC: 189.8 mg/dL
  IP: 6.6 mg/dL
  K: 4 meq/L
  LDH: 71.6 IU/L
  Na: 142.2 meq/L
  PL: 159 mg/dL
  RALB: 2.8 g/dL
  TBIL: 0.028 mg/dL
  TC: 74.4 mg/dL
  TG: 131.2 mg/dL
  TP: 5.8 g/dL
  gamma-GTP: 0.8 IU/L
[3]
  TERMINAL_BW: 335.9 g
  APTT: 19.2 s
  Bas: 0%
  Eos: 1.2%
  Fbg: 292.4 mg/dL
  Hb: 14.8 g/dL
  Ht: 43.7%
  Lym: 80.4%
  MCH: 20.4 pg
  MCHC: 33.9%
  MCV: 60.2 fL
  Mono: 2%
  Neu: 15.8%
  PT: 14.2 s
  Plat: 122.3 x10_4/uL
  RBC: 724.8 x10_4/ul
  Ret: 4.5%
  WBC: 90.4 x10_2/uL
  KIDNEY_L: 1.3 g
  KIDNEY_R: 1.3 g
  KIDNEY_TOTAL: 2.6 g
  LIVER: 15.3 g
  A/G: 0.9
  ALP: 1246.2 IU/L
  ALT: 41.4 IU/L
  AST: 68.2 IU/L
  BUN: 16.2 mg/dL
  CRE: 0.2 mg/dL
  Ca: 10.9 mg/dL
  Cl: 105.2 meq/L
  DBIL: 0.01 mg/dL
  GLC: 189 mg/dL
  IP: 6.2 mg/dL
  K: 4.2 meq/L
  LDH: 107.4 IU/L
  Na: 143 meq/L
  PL: 155.6 mg/dL
  RALB: 2.8 g/dL
  TBIL: 0.024 mg/dL
  TC: 71.4 mg/dL
  TG: 150.4 mg/dL
  TP: 6.1 g/dL
  gamma-GTP: 0.8 IU/L
[4]
  TERMINAL_BW: 405.5 g
  APTT: 18.4 s
  Bas: 0%
  Eos: 1.4%
  Fbg: 300.8 mg/dL
  Hb: 15.6 g/dL
  Ht: 45.4%
  Lym: 79.2%
  MCH: 19.8 pg
  MCHC: 34.2%
  MCV: 58 fL
  Mono: 2.2%
  Neu: 16.2%
  PT: 14.1 s
  Plat: 103.8 x10_4/uL
  RBC: 783.8 x10_4/ul
  Ret: 2.6%
  WBC: 93.7 x10_2/uL
  KIDNEY_L: 1.4 g
  KIDNEY_R: 1.4 g
  KIDNEY_TOTAL: 2.8 g
  LIVER: 16.3 g
  A/G: 0.9
  ALP: 945.4 IU/L
  ALT: 29.6 IU/L
  AST: 58.4 IU/L
  BUN: 15.4 mg/dL
  CRE: 0.3 mg/dL
  Ca: 10.9 mg/dL
  Cl: 105.8 meq/L
  DBIL: 0.008 mg/dL
  GLC: 185 mg/dL
  IP: 6 mg/dL
  K: 3.6 meq/L
  LDH: 51.6 IU/L
  Na: 144 meq/L
  PL: 147.4 mg/dL
  RALB: 2.9 g/dL
  TBIL: 0.052 mg/dL
  TC: 67.6 mg/dL
  TG: 140.8 mg/dL
  TP: 6.3 g/dL
  gamma-GTP: 1.2 IU/L
[5]
  TERMINAL_BW: 236.4 g
  APTT: 16.9 s
  Bas: 0%
  Eos: 1%
  Fbg: 294.8 mg/dL
  Hb: 13.7 g/dL
  Ht: 41.6%
  Lym: 78.8%
  MCH: 20.9 pg
  MCHC: 33%
  MCV: 63.3 fL
  Mono: 2.8%
  Neu: 16.6%
  PT: 14.1 s
  Plat: 122 x10_4/uL
  RBC: 658.2 x10_4/ul
  Ret: 7.4%
  WBC: 84.7 x10_2/uL
  KIDNEY_L: 1 g
  KIDNEY_R: 1 g
  KIDNEY_TOTAL: 1.9 g
  LIVER: 10.8 g
  A/G: 0.9
  ALP: 1491 IU/L
  ALT: 40.2 IU/L
  AST: 69.8 IU/L
  BUN: 13 mg/dL
  CRE: 0.2 mg/dL
  Ca: 10.8 mg/dL
  Cl: 106.6 meq/L
  DBIL: 0.014 mg/dL
  GLC: 183.8 mg/dL
  IP: 7 mg/dL
  K: 4.1 meq/L
  LDH: 85 IU/L
  Na: 143.8 meq/L
  PL: 156 mg/dL
  RALB: 2.7 g/dL
  TBIL: 0.028 mg/dL
  TC: 80.8 mg/dL
  TG: 114.8 mg/dL
  TP: 5.7 g/dL
  gamma-GTP: 1.2 IU/L
[6]
  TERMINAL_BW: 276.9 g
  APTT: 17.9 s
  Bas: 0.2%
  Eos: 1%
  Fbg: 305.6 mg/dL
  Hb: 13.9 g/dL
  Ht: 42.4%
  Lym: 80.6%
  MCH: 20.7 pg
  MCHC: 32.9%
  MCV: 63 fL
  Mono: 2.4%
  Neu: 14.6%
  PT: 14.2 s
  Plat: 127.2 x10_4/uL
  RBC: 674.2 x10_4/ul
  Ret: 5.7%
  WBC: 102.7 x10_2/uL
  KIDNEY_L: 1.1 g
  KIDNEY_R: 1.1 g
  KIDNEY_TOTAL: 2.3 g
  LIVER: 12.9 g
  A/G: 0.9
  ALP: 1699 IU/L
  ALT: 43.4 IU/L
  AST: 66.2 IU/L
  BUN: 17 mg/dL
  CRE: 0.2 mg/dL
  Ca: 10.9 mg/dL
  Cl: 104.2 meq/L
  DBIL: 0.01 mg/dL
  GLC: 184 mg/dL
  IP: 7.5 mg/dL
  K: 3.9 meq/L
  LDH: 80.6 IU/L
  Na: 142.2 meq/L
  PL: 167.8 mg/dL
  RALB: 2.7 g/dL
  TBIL: 0.028 mg/dL
  TC: 85.2 mg/dL
  TG: 116.8 mg/dL
  TP: 5.8 g/dL
  gamma-GTP: 1.2 IU/L
[7]
  TERMINAL_BW: 325.3 g
  APTT: 17.2 s
  Bas: 0%
  Eos: 1%
  Fbg: 300.8 mg/dL
  Hb: 14.8 g/dL
  Ht: 43.6%
  Lym: 82.4%
  MCH: 20.7 pg
  MCHC: 34%
  MCV: 60.9 fL
  Mono: 1.8%
  Neu: 14%
  PT: 13.8 s
  Plat: 111.4 x10_4/uL
  RBC: 716 x10_4/ul
  Ret: 3.9%
  WBC: 83.6 x10_2/uL
  KIDNEY_L: 1.3 g
  KIDNEY_R: 1.3 g
  KIDNEY_TOTAL: 2.6 g
  LIVER: 14.2 g
  A/G: 0.9
  ALP: 1443.4 IU/L
  ALT: 42.8 IU/L
  AST: 61.6 IU/L
  BUN: 15 mg/dL
  CRE: 0.2 mg/dL
  Ca: 10.9 mg/dL
  Cl: 104.2 meq/L
  DBIL: 0.012 mg/dL
  GLC: 194.4 mg/dL
  IP: 6.7 mg/dL
  K: 3.9 meq/L
  LDH: 89 IU/L
  Na: 142.4 meq/L
  PL: 178.2 mg/dL
  RALB: 2.8 g/dL
  TBIL: 0.028 mg/dL
  TC: 85 mg/dL
  TG: 171.6 mg/dL
  TP: 6 g/dL
  gamma-GTP: 1 IU/L
[8]
  TERMINAL_BW: 410.3 g
  APTT: 18.8 s
  Bas: 0%
  Eos: 1.6%
  Fbg: 313 mg/dL
  Hb: 16.2 g/dL
  Ht: 46.8%
  Lym: 82.8%
  MCH: 20 pg
  MCHC: 34.6%
  MCV: 57.7 fL
  Mono: 1.8%
  Neu: 13%
  PT: 14.1 s
  Plat: 101.2 x10_4/uL
  RBC: 812.4 x10_4/ul
  Ret: 2.2%
  WBC: 93.4 x10_2/uL
  KIDNEY_L: 1.4 g
  KIDNEY_R: 1.4 g
  KIDNEY_TOTAL: 2.8 g
  LIVER: 15.7 g
  A/G: 0.9
  ALP: 1085 IU/L
  ALT: 35 IU/L
  AST: 57.2 IU/L
  BUN: 16.6 mg/dL
  CRE: 0.3 mg/dL
  Ca: 10.9 mg/dL
  Cl: 105.8 meq/L
  DBIL: 0.01 mg/dL
  GLC: 179.4 mg/dL
  IP: 6.2 mg/dL
  K: 3.9 meq/L
  LDH: 58 IU/L
  Na: 144 meq/L
  PL: 159.8 mg/dL
  RALB: 2.9 g/dL
  TBIL: 0.066 mg/dL
  TC: 77.2 mg/dL
  TG: 139.2 mg/dL
  TP: 6.3 g/dL
  gamma-GTP: 1.2 IU/L
